Our source for the GHS category values is the CATMoS acute toxicity set (Mansouri et al. 2021).

The series can be described thus: GHS categories as the set defines them, by LD50: 1 up to 5, 2 up to 50, 3 up to 300, 4 up to 2000, 5 above 2000 mg/kg. Conditions: rat; in vivo; po.

In turn, `CC(C)C1=CC23CCC4C(C)(C(=O)N5CCOCC5)CCCC4(C)C2CC1C1C(=O)OC(=O)C13` (stereo unspecified) yielded a GHS category of 5.

On to `COc1ccc2c(c1)CCN(c1ccccc1)C2c1cccc(C(F)(F)F)c1` (stereo unspecified), for which the GHS category stood at 4.

As to `Cc1ccn2c(=O)c(C(=O)NC3CCCC3)cnc2c1`, the GHS category is listed as 3.

`COc1cc(OC)nc(N=C(O)NS(=O)(=O)c2c(Cl)nc3ccccn23)n1` gave a GHS category of 5.

Take `FC(F)(F)c1nc(NC2CC2)c2ncn(CC3CC3)c2n1`: the GHS category is listed as 3.

In turn, `O=C(C=Cc1ccccc1)NCCO` yielded a GHS category of 5.

As for `CCCCC(CC)CNc1ccc(NCC(CC)CCCC)c2c1C(=O)c1c(O)ccc(O)c1C2=O` (stereo unspecified), the GHS category is listed as 5.

`COc1cc2c(cc1OC)C(c1ccccc1Cl)N(c1ccccc1)CC2` (stereo unspecified): the GHS category is recorded as 4.

In the case of `CN(C)CC(=O)N/N=C/c1c(Cl)nc2n1CCS2`, the GHS category worked out at 4.

As for `CCOC(=O)c1cnn(-c2cccc(C)c2)c1S(C)(=O)=O`, the GHS category is recorded as 4.

Consider `Cc1c(S(C)(=O)=O)ccc(C(=O)O)c1Cl`, for which the GHS category turned out to be 5.

Turning to `CCCCCCCCCCCCOC(=O)C=CC(=O)OCCCCCCCCCCCC`, the GHS category was 5.

In turn, `CC(C)CCC[C@@H](C)[C@H]1CC[C@H]2[C@@H]3CC=C4C[C@@H](O)CC[C@]4(C)[C@H]3CC[C@]12C` had a GHS category of 5.

Turning to `CC(C)C(=O)OCCOc1ccccc1`, the GHS category turned out to be 5.

`CN(Cc1ccc(C(C)(C)C)cc1)Cc1cccc2ccccc12` showed a GHS category of 5.

As to `CCC(C)CCC(C)(O)CC` (stereo unspecified), the GHS category stood at 5.

On to `COc1c(C)c(O)c(C)c(C)c1C(=O)Oc1c(C)c(C)c(C(=O)Oc2c(C)c(C)c(C(=O)O)c(OC)c2C)c(O)c1C`, for which the GHS category is listed as 4.

`COc1ccc2c(c1)CC[C@@H]1[C@@H]2CC[C@]2(C)C(=O)CC[C@@H]12`: the GHS category was 5.

As to `CCCCCOC1OC(C)C(O)C(O)C1O` (stereo unspecified), the GHS category is 5.

Turning to `CN1C(=CC=O)C(C)(C)c2ccccc21`, the GHS category was found to be 3.

`CCCc1nc2ccnn2c(N2CCOCC2)c1Cc1ccc(-c2ccccc2-c2nn[nH]n2)cc1`: the GHS category is 4.

As for `COC(=O)c1c(C(F)F)nc(C(F)(F)F)c(C2=NCCS2)c1CC(C)C`, the GHS category is 5.

For `CC(CO)C1CCCCCCCCCCC1` (stereo unspecified), the GHS category is 5.

Compound `CCCCC(CC)COCOCC(CC)CCCC` (stereo unspecified) yielded a GHS category of 5.

The compound `CCCCCCCCCCCCCCCCCCCCCC(=O)Nc1ccn([C@@H]2O[C@H](CO)[C@@H](O)[C@@H]2O)c(=O)n1` had a GHS category of 4.

`CC(C)CCCCCCCCCCCCCC=CC1CC(=O)OC1=O` (stereo unspecified) gave a GHS category of 5.

In turn, `CN1C(C(=O)Nc2ccccn2)=C(OC(=O)C(C)(C)C)c2sccc2S1(=O)=O` showed a GHS category of 2.

Compound `CCC1OC(=O)C(C)C(OC2CC(C)(OC)C(O)C(C)O2)C(C)C(OC2OC(C)CC(N(C)C)C2O)C(C)(O)CC(C)C(=O)C(C)C(O)C1(C)O` (stereo unspecified) showed a GHS category of 5.

With `CCCCCCOC(=O)CC(C)C`, the GHS category is listed as 5.

`COc1ccc2c(c1)CCN(c1ccccc1)C2c1ccccc1[N+](=O)[O-]` (stereo unspecified) displayed a GHS category of 4.

Turning to `CC1=CCC(C(C)(C)OC(=O)C(C)C)CC1` (stereo unspecified), the GHS category is reported as 5.

Take `N#CCCn1ccnc1`: the GHS category is recorded as 4.

In turn, `CC(C)OP(=O)(O)Oc1ccccc1` had a GHS category of 5.

For the compound `CC1CC(OC(=O)COc2ccccc2Cl)CC(C)(C)C1` (stereo unspecified), the GHS category was determined as 5.

`COc1ccccc1C=NNC(N)=S` had a GHS category of 5.

`CCn1ccc(=O)n2nc(-c3cccs3)cc12`: the GHS category was determined as 4.

For `CCCCCCCCOCCCCCCCC`, the GHS category is on record as 5.

For `C=C[C@](C)(O)CC[C@@H]1[C@@]2(C)CCCC(C)(C)[C@@H]2CC[C@@]1(C)O`, the GHS category stood at 5.

The compound `O=C(CSCCO)NCCCOc1cccc(CN2CCCCC2)c1` showed a GHS category of 5.

In turn, `Cc1cccc2ncc(C(=O)Nc3ccc(F)cc3)c(=O)n12` displayed a GHS category of 3.

For the compound `C[C@@H]1CC(C)(C)O[C@](Cn2cncn2)(c2cc3ccccc3o2)O1`, the GHS category was determined as 4.

In the case of `Cc1ccc(Nc2ccc(Nc3ccc(C)cc3S(=O)(=O)O)c3c2C(=O)c2ccccc2C3=O)c(S(=O)(=O)O)c1`, the GHS category amounted to 5.

In turn, `COc1ccccc1OCCNCC(O)c1ccc(C)c(S(N)(=O)=O)c1` (stereo unspecified) returned a GHS category of 5.

Regarding `COc1ccc(C=C(C(=O)Nc2ccccc2C(=O)O)C(=O)Nc2ccccc2C(=O)O)cc1OC`, the GHS category is given as 5.

Take `CCCCCCCCOC=O`: the GHS category came to 5.

In the case of `Cc1ncc(CSSSCc2cnc(C)c(O)c2CO)c(CO)c1O`, the GHS category is on record as 5.

Compound `N#Cc1ccc(N(c2ccc(C#N)cc2)c2ccc3c(c2)C(=O)N(Cc2cccnc2)C3=O)cc1` gave a GHS category of 5.

In the case of `CCC(Oc1ccc(F)c(C(F)(F)F)c1)C(O)=NCc1ccccc1` (stereo unspecified), the GHS category is on record as 5.

For `CCC(=O)O[C@]1(C(=O)COC(C)=O)CC[C@H]2[C@@H]3C[C@H](C)C4=CC(=O)C=C[C@]4(C)[C@H]3[C@@H](O)C[C@@]21C`, the GHS category is reported as 5.

Turning to `COC(=O)c1cc(F)ccc1N`, the GHS category came out at 5.

For the compound `C[C@H]1COc2c(N3C[C@@H](N)C4(CCC4)C3)c(F)cc3c(=O)c(C(=O)O)cn1c23`, the GHS category stood at 5.

For the compound `Cc1[nH]nc(C(=O)Nc2cccc(C(F)(F)F)c2)c1Br`, the GHS category was found to be 5.

`Oc1cc(O)ncn1` came in with a GHS category of 5.

As to `CSC(=O)c1cccc2nnsc12`, the GHS category is reported as 5.

In turn, `CCC(=O)OC/C=C(/C)CCC=C(C)C` showed a GHS category of 5.

`CC1CC(OC(=O)C(C)Oc2cccc(C(F)(F)F)c2)CC(C)(C)C1` (stereo unspecified) yielded a GHS category of 5.

The compound `CCCCOC(=O)C(C)O` (stereo unspecified) displayed a GHS category of 5.

Compound `CN1COCN=C1N[N+](=O)[O-]` gave a GHS category of 4.

Regarding `CCC=CCC=CCC=CCC=CCCCCC(=O)OCC`, the GHS category is given as 5.

With `O=C1CCc2c(cccc2OCCCN2CCC(O)(c3ccccc3)CC2)N1`, the GHS category was 4.

`CC(O)C(O)C(=O)C(O)C(O)Oc1cccc2c1C(=O)c1c(O)cc(C(=O)O)cc1C2C1c2cc(C(=O)O)cc(O)c2C(=O)c2c(OC(O)C(O)C(=O)C(O)C(C)O)cccc21` (stereo unspecified) gave a GHS category of 5.

`COc1ccccc1C(=O)NS(=O)(=O)c1ccc(C(=O)NC2CC2)cc1` registered a GHS category of 5.

Take `Clc1cc(Cl)c2oc(C3(Cn4ccnc4)OCCCO3)cc2c1`: the GHS category came to 4.

The compound `CCOc1cc(NCCCN(C)C)c(=O)n(-c2ccccc2)n1` came in with a GHS category of 5.

Compound `Clc1ccc2oc(C3(Cn4cncn4)OCCCO3)cc2c1` returned a GHS category of 4.

Regarding `CC(C)(C)NC(=O)[C@@H]1CN(Cc2cccnc2)CCN1C[C@@H](O)C[C@@H](Cc1ccccc1)C(=O)N[C@H]1c2ccccc2C[C@H]1O`, the GHS category is on record as 5.

Compound `CCN(C(=O)CCCSc1nnnn1C)C1CCCCC1` gave a GHS category of 4.

With `COC(=O)Nc1nc2cc(Sc3ccccc3)ccc2[nH]1`, the GHS category came to 5.

Regarding `CCCCCC(=O)Nc1ccc(Cc2ccccn2)c([N+](=O)[O-])c1`, the GHS category is on record as 3.

With `CC12CCC3c4ccc(OC(=O)c5ccccc5)cc4CCC3C1CCC2OC(=O)CO` (stereo unspecified), the GHS category came to 5.

Turning to `N[C@@H](CC(=O)N1CCn2c(nnc2C(F)(F)F)C1)Cc1cc(F)c(F)cc1F`, the GHS category is given as 5.

Turning to `CCC(C)(O)CCCC(C)C` (stereo unspecified), the GHS category was determined as 5.

`O=C(O)c1cc(O)ccc1Nc1ccc(O)c(C(F)(F)F)c1` had a GHS category of 4.

As to `COC1[C@@H](O[C@@H]2O[C@H](C)[C@@H](O[C@H]3C[C@@](C)(O)[C@H](OC(=O)CC(C)C)[C@H](C)O3)[C@H](N(C)C)[C@H]2O)[C@@H](CC=O)C[C@@H](C)[C@@H](O)C=CC=CC[C@@H](C)OC(=O)C[C@H]1OC(C)=O` (stereo partly specified), the GHS category was 5.

As for `Cc1ccc2c([nH]c(=O)c3c(=O)cc(C(=O)OCCC(C)C)oc32)c1C`, the GHS category was determined as 5.

Compound `COc1cc(O)c2c(=O)oc(CO)cc2c1` returned a GHS category of 4.

For the compound `CCCC1CCC(=O)O1` (stereo unspecified), the GHS category came to 5.

As to `CN(C)c1ccc(C=Nc2ccccc2C(=O)O)cc1`, the GHS category is 4.

The compound `Cc1cccc(OC(=O)c2cc(Cl)ccc2OC(N)=O)c1` showed a GHS category of 5.

Regarding `CC(C)CCCCCCCOP(=O)(Oc1ccccc1)Oc1ccccc1`, the GHS category amounted to 5.

For the compound `COCC1=C(C(=O)OC(C)OC(=O)OC(C)C)N2C(=O)[C@@H](NC(=O)/C(=N\OC)c3csc(N)n3)[C@H]2SC1` (stereo partly specified), the GHS category is recorded as 5.

In turn, `NNC(=O)CCCCC(=O)NN` had a GHS category of 5.

Regarding `CCOC(=O)C1OC1C(=O)NC(CC(C)C)C(=O)NCCC(C)C` (stereo unspecified), the GHS category worked out at 5.

For `CCOC(=O)C(=O)Nc1cc(Cl)ncn1`, the GHS category stood at 4.

In turn, `O=C(O)c1cc(O)[nH]c(=O)c1` registered a GHS category of 5.

The compound `Nc1ccc(N)c(S(=O)(=O)O)c1` registered a GHS category of 5.

For `CC1=NN(c2cccc(S(=O)(=O)O)c2)C(=O)C1`, the GHS category turned out to be 5.

Compound `C=C(C)C(=O)OCCOC(=O)NCCC(C)CC(C)(C)CNC(=O)OCCOC(=O)C(=C)C` (stereo unspecified) displayed a GHS category of 5.

As to `COc1ccccc1N1CCN(/C(=N\CCCO)Nc2ccccc2)CC1`, the GHS category turned out to be 4.

Turning to `C=C(C)C1CCC(C)C(=O)C1` (stereo unspecified), the GHS category came out at 5.

Compound `CC1CC(OC(=O)COc2ccc(Cl)cc2)CC(C)(C)C1` (stereo unspecified) registered a GHS category of 5.

As to `CC(C)(Sc1cc(C(C)(C)C)c(O)c(C(C)(C)C)c1)Sc1cc(C(C)(C)C)c(O)c(C(C)(C)C)c1`, the GHS category turned out to be 5.

With `COc1cc(NS(=O)(=O)c2ccccc2)c2c(c1N)C(=O)c1ccccc1C2=O`, the GHS category was found to be 5.

Compound `CC(C)(C)c1cc(CCC(=O)OCC(COC(=O)CCc2cc(C(C)(C)C)c(O)c(C(C)(C)C)c2)(COC(=O)CCc2cc(C(C)(C)C)c(O)c(C(C)(C)C)c2)COC(=O)CCc2cc(C(C)(C)C)c(O)c(C(C)(C)C)c2)cc(C(C)(C)C)c1O` gave a GHS category of 5.

Compound `C(=C\c1ccccc1)/CN1CCN(C(c2ccccc2)c2ccccc2)CC1` displayed a GHS category of 5.

With `CCCCCCCCOC(=O)CCc1cc(C(C)(C)C)c(O)c(C(C)(C)C)c1`, the GHS category came out at 5.
